In patent US10655144B2, “Nucleic acid construct with a p16 promoter that causes a prodrug converting enzyme to be expressed specifically in senescent cells” (Buck Institute for Research on Aging, priority 2012, dated 2020):

Key:
[1] = system: senescent cells; assay: Tissue and organ analyses after sacrifice (adipose cell diameter, muscle fiber diameter, skin thickness, cardiac performance, glomerulosclerosis) in AP20187-treated INK-ATTAC mice; assay type: in vivo, INK-ATTAC transgenic mice; conditions: treated vs untreated
Protocol: (§1) Clearance of therapy-induced senescent cells improves age-sensitive traits and other health parameters in aged animals. […] INK-ATTAC transgenic animals from each of lineage 3 (TG3) and lineage 5 (TG5) were used in the experiments (see Baker et al., Nature, supra). INK-ATTAC transgenic mice were aged 10-12 weeks, and then cohorts of animals were treated with AP20187 or PBS (control) on a weekly basis from the start of treatment.
(§2) When the animals reached 18 months of age, several measures of health and lifespan were taken. Weight, fat mass, activity measurements (treadmill exercise tests to measure distance traveled and duration of exercise) were compared between untreated female mice (n=16) and AP20187-treated female mice (n=21), and compared between untreated male mice (n=19) and AP20187-treated male mice (n=21). Fat mass was greater in both treated females and males compared with the untreated groups (see FIG. 5). […] Treated and untreated mice (5-6 per group) were sacrificed, and adipose cell (AC) diameter, gastrocnemius muscle fiber diameter (μm), abdominal muscle fiber diameter (μm), dermal thickness (μm), subdermal adipose thickness (μm), cardiac performance (introduction of isoproterenol as an exogenous stress in animals prior to sacrifice), and extent of glomerulosclerosis were determined. Treated animals had greater adipose cell diameter (see FIG. 6); better cardiac performance (FIG. 7); and had less sclerotic glomeruli (see FIG. 8) than untreated animals. […] Removal of senescent cells in AP20187-treated animals prevented loss of adipose tissue, prevented loss of cardiac performance, and reduced the extent of glomerulosclerosis.

[2] = system: senescent cells; assay: Lifespan of wild type INK-ATTAC transgenic mice with senescent cells removed by weekly AP20187; assay type: in vivo; conditions: weekly treatment from 10-12 weeks of age; PBS control 21 months; FIG. 4
Protocol: as §1

[3] = system: senescent cells; assay: Measures of health at 18 months of age (weight, fat mass, treadmill activity) in AP20187-treated INK-ATTAC mice; assay type: in vivo, INK-ATTAC transgenic mice
Protocol: as §1, §2

CC[C@H](C(=O)N1CCCC[C@H]1C(=O)O[C@H](CCc1ccc(OC)c(OC)c1)c1cccc(OCC(=O)NCC(CNC(=O)COc2cccc([C@@H](CCc3ccc(OC)c(OC)c3)OC(=O)[C@@H]3CCCCN3C(=O)[C@@H](CC)c3cc(OC)c(OC)c(OC)c3)c2)CN(C)C)c1)c1cc(OC)c(OC)c(OC)c1 [AP20187]
cardiac performance ([1]; isoproterenol as exogenous stress prior to sacrifice, FIG. 7): better | adipose cell (AC) diameter ([1]; sacrificed mice, 5-6 per group, FIG. 6): greater | abdominal muscle fiber diameter ([1]; sacrificed mice): No significant differences | dermal thickness ([1]; sacrificed mice): No significant differences | gastrocnemius muscle fiber diameter ([1]; sacrificed mice): No significant differences | subdermal adipose thickness ([1]; sacrificed mice): No significant differences | extent of glomerulosclerosis (sclerotic glomeruli) ([1]; sacrificed mice, FIG. 8): less | average lifespan [2]: approximately 26 months | fat mass ([3]; treated females and males each vs untreated group of same sex, FIG. 5): greater | activity measurements (treadmill exercise tests: distance traveled and duration of exercise) ([3]; treated vs untreated animals): No statistically significant differences | weight ([3]; treated vs untreated animals): No statistically significant differences
